# Laboratory results reported in ChEMBL document CHEMBL5108009, “Positron Emission Tomography (PET) Imaging Tracers for Serotonin Receptors” (J Med Chem, 2022).
# Legend:
# [1] = target: T1, 5-hydroxytryptamine receptor 2A (Rattus norvegicus, UniProt P14842); experiment: Binding affinity to rat frontal cortex 5-HT2A assessed as inhibition constant; format: tissue-based
# [2] = target: T1, 5-hydroxytryptamine receptor 2A; experiment: Binding affinity to rat frontal cortex 5-HT2A assessed as dissociation constant; format: tissue-based
# [3] = target: T2, 5-hydroxytryptamine receptor 7 (Homo sapiens, UniProt P34969); experiment: Binding affinity to 5-HT7 receptor (unknown origin) assessed as inhibition constant
# [4] = target: Sigma non-opioid intracellular receptor 1 (Homo sapiens, UniProt Q99720); experiment: Binding affinity to sigma 1 receptor (unknown origin) assessed as inhibition constant
# [5] = target: Sigma intracellular receptor 2 (Homo sapiens, UniProt Q5BJF2); experiment: Binding affinity to sigma 2 receptor (unknown origin) assessed as inhibition constant
# [6] = target: T3, 5-hydroxytryptamine receptor 6 (Homo sapiens, UniProt P50406); experiment: Binding affinity to human recombinant 5-HT6 receptor assessed as inhibition constant
# [7] = Drug uptake in pig striatum relative to control; format: ADME, tissue-based, Sus scrofa; conditions: in vivo
# [8] = Drug uptake in Papio anubis striatum relative to control; format: ADME, tissue-based
# [9] = Drug uptake in human striatum relative to control; format: ADME, tissue-based
# [10] = target: T4, 5-hydroxytryptamine receptor 2A (Homo sapiens, UniProt P28223); experiment: Binding affinity to human recombinant 5-HT2A assessed as inhibition constant
# [11] = target: T3, 5-hydroxytryptamine receptor 6; experiment: Binding affinity to 5-HT6 receptor (unknown origin) assessed as inhibition constant
# [12] = Drug uptake in rat brain frontal cortex relative to control; format: ADME, tissue-based; conditions: in vivo
# [13] = target: T2, 5-hydroxytryptamine receptor 7; experiment: Binding affinity to human 5-HT7 receptor transfected by pcDNA3.1(+) vector in HEK293 cells assessed as inhibition constant by Cheng-Prusoff equation analysis; format: cell-based
# [14] = target: T4, 5-hydroxytryptamine receptor 2A; experiment: Antagonist activity at human 5-HT2A receptor incubated for 3 hrs by radioligand binding assay; format: functional
# [15] = target: T4, 5-hydroxytryptamine receptor 2A; experiment: Inverse agonist activity at human 5-HT2A receptor incubated for 3 hrs by radioligand binding assay; format: functional
# [16] = target: T1, 5-hydroxytryptamine receptor 2A; experiment: Antagonist activity at rat 5-HT2A receptor; format: functional
# [17] = Ratio of drug uptake in baboon cerebral cortex to cerebellum measured at 60 mins postinjection; format: ADME, organism-based, Papio; conditions: in vivo, 1 h
# [18] = Ratio of drug uptake in baboon striatum to cerebellum measured at 60 mins postinjection; format: ADME, organism-based, Papio; conditions: in vivo, 1 h
# [19] = Ratio of drug uptake in human frontal cortex to cerebellum; format: ADME, tissue-based, Brain frontal cortex/cerebellum
# [20] = Ratio of drug uptake in human striatum to cerebellum; format: ADME, tissue-based
# [21] = target: T5, 5-hydroxytryptamine receptor 2C (Homo sapiens, UniProt P28335); experiment: Displacement of [3H]-mesulergine from 5-HT2C (unknown origin) assessed as inhibition constant by radioligand competitive binding assay
# T5 sequence (P28335 whole entry): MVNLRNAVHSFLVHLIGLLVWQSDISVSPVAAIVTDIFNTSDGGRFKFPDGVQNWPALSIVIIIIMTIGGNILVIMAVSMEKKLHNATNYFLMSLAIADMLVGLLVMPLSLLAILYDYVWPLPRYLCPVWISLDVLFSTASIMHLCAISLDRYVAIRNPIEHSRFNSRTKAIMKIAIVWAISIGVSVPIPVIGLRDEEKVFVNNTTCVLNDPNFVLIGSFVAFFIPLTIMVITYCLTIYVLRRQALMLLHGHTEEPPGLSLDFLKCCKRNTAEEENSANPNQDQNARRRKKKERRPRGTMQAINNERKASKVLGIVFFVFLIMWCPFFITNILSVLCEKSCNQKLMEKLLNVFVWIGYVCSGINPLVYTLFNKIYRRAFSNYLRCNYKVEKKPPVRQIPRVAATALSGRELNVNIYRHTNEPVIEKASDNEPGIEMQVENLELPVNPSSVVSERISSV
# [22] = target: T6, 5-hydroxytryptamine receptor 1A (Homo sapiens, UniProt P08908); experiment: Displacement of [3H]-mesulergine from 5-HT1A (unknown origin) assessed as inhibition constant by radioligand competitive binding assay
# T6 sequence (P08908 whole entry): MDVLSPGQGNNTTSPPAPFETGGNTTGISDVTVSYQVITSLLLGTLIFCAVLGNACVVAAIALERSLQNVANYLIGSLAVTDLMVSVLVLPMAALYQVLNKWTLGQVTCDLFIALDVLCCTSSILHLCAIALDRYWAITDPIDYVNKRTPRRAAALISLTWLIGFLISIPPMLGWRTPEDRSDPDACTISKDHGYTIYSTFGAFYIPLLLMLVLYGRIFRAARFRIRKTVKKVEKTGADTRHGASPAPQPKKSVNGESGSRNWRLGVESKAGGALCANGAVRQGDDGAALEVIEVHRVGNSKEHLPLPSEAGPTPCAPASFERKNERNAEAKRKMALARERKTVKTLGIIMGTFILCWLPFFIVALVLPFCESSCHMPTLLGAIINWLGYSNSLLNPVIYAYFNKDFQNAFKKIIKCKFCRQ
# [23] = target: T7, 5-hydroxytryptamine receptor 2B (Homo sapiens, UniProt P41595); experiment: Displacement of [3H]-mesulergine from 5-HT2B (unknown origin) assessed as inhibition constant by radioligand competitive binding assay
# [24] = In vivo binding affinity of Papio anubis baboon 5-HT2C assessed as inhibition constant measured after 1 to 21 mins postinjection; format: functional, organism-based
# [25] = target: T8, 5-hydroxytryptamine receptor 1F (Homo sapiens, UniProt P30939); experiment: Binding affinity to human 5-HT1F assessed as inhibition constant
# [26] = target: T9, 5-hydroxytryptamine receptor 1D (Homo sapiens, UniProt P28221); experiment: Binding affinity to 5-HT1D (unknown origin) assessed as inhibition constant
# [27] = target: 5-hydroxytryptamine receptor 5A (Homo sapiens, UniProt P47898); experiment: Binding affinity to 5-HT5A receptor (unknown origin) assessed as inhibition constant
# [28] = target: T5, 5-hydroxytryptamine receptor 2C
# [29] = target: T2, 5-hydroxytryptamine receptor 7
# [30] = target: T7, 5-hydroxytryptamine receptor 2B
# [31] = target: T6, 5-hydroxytryptamine receptor 1A
# [32] = Drug uptake in Cynomolgus monkey striatum at 4 mCi, iv measured upto 90 mins by PET imaging; format: ADME, organism-based, Macaca fascicularis; conditions: in vivo, 1.5 h
# [33] = Drug uptake in cat striatum at 2.5 mCi, iv measured upto 90 mins by PET imaging; format: ADME, organism-based, Felis catus; conditions: in vivo, 1.5 h
# [34] = target: 5-hydroxytryptamine receptor 7 (Rattus norvegicus, UniProt P32305); experiment: Binding affinity to rat brain 5-HT7 receptor assessed as inhibition constant incubated for 60 mins; format: tissue-based
# [35] = Drug uptake in human frontal cortex assessed as non-displaceable binding potential; format: ADME, tissue-based
# [36] = Ratio of drug uptake in rat cortex to cerebellum at steady state; format: ADME, tissue-based; conditions: in vivo
# [37] = target: Serotonin 3 (5-HT3) receptor; experiment: Binding affinity to 5-HT3 receptor (unknown origin) assessed as inhibition constant; format: protein-complex assay, Homo sapiens
# [38] = target: T1, 5-hydroxytryptamine receptor 2A; experiment: Binding affinity to rat 5-HT2A assessed as inhibition constant by liquid scintillation counter analysis
# [39] = target: T7, 5-hydroxytryptamine receptor 2B; experiment: Binding affinity to 5-HT2B (unknown origin) assessed as inhibition constant by liquid scintillation counter analysis
# [40] = target: T5, 5-hydroxytryptamine receptor 2C; experiment: Binding affinity to 5-HT2C (unknown origin) assessed as inhibition constant by liquid scintillation counter analysis
# [41] = Drug uptake in Wistar rat frontal cortex assessed as non-displaceable binding potential at 10 MBq measured at 5 to 60 mins; format: ADME, tissue-based; conditions: in vivo, time 5-60 min
# [42] = Ratio of drug uptake in Wistar rat cortex to cerebellum at 10 MBq measured at 30 mins; format: ADME, tissue-based; conditions: in vivo, 0.5 h
# [43] = target: 5-hydroxytryptamine receptor 4 (Homo sapiens, UniProt Q13639); experiment: Binding affinity to 5-HT4 receptor (unknown origin) assessed as inhibition constant
# [44] = Drug uptake in human brain; format: ADME, tissue-based
# [45] = target: T9, 5-hydroxytryptamine receptor 1D; experiment: Binding affinity to human 5-HT1D expressed in CHO cells assessed as inhibition constant incubated for 1 hr by Cheng-Prusoff equation analysis; format: cell-based
# [46] = target: T8, 5-hydroxytryptamine receptor 1F; experiment: Binding affinity to human 5-HT1F assessed as inhibition constant incubated for 10 mins by radioligand binding assay
# [47] = target: 5-hydroxytryptamine receptor 1B (Homo sapiens, UniProt P28222)
# [48] = target: T5, 5-hydroxytryptamine receptor 2C; experiment: Binding affinity to human 5-HT2C assessed as inhibition constant
# [49] = Drug uptake in pig brain cortex measured at 10 to 20 mins postinjection; format: ADME, organism-based, Sus scrofa; conditions: in vivo, time 10-20 min
# [50] = Drug uptake in pig brain cortex assessed as non-displaceable binding potential; format: ADME, tissue-based, Sus scrofa; conditions: in vivo
# [51] = target: T4, 5-hydroxytryptamine receptor 2A; experiment: Binding affinity to human 5-HT2A assessed as inhibition constant
# D(2) dopamine receptor = D(2) dopamine receptor (Rattus norvegicus, UniProt P61169); experiment: Displacement of [3H]-spiperone from rat striatal membrane D2 receptor; format: cell membranes, Striatum
# [52] = target: T1, 5-hydroxytryptamine receptor 2A; experiment: Displacement of [3H]-Ketanserin from rat cortical membrane 5-HT2A receptor; format: cell membranes, Cortex
# [53] = target: T10, Alpha-1A adrenergic receptor (Rattus norvegicus, UniProt P43140); experiment: Displacement of [3H]prazosin from rat whole brain alpha1 adrenergic receptor; format: tissue-based
# T10 sequence (P43140 whole entry): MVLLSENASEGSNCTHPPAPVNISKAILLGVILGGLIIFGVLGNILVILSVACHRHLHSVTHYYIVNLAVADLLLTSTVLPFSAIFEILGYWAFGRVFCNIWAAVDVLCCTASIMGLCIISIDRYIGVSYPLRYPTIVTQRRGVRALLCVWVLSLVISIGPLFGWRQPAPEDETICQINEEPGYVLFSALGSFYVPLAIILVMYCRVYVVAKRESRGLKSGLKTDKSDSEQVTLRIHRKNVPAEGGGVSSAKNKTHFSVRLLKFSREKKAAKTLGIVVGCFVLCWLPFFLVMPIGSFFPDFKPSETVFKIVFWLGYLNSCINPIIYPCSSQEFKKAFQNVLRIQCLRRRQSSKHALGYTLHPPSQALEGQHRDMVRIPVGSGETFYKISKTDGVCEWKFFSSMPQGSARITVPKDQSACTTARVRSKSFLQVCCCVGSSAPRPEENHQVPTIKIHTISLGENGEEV
# T7 sequence (P41595 whole entry): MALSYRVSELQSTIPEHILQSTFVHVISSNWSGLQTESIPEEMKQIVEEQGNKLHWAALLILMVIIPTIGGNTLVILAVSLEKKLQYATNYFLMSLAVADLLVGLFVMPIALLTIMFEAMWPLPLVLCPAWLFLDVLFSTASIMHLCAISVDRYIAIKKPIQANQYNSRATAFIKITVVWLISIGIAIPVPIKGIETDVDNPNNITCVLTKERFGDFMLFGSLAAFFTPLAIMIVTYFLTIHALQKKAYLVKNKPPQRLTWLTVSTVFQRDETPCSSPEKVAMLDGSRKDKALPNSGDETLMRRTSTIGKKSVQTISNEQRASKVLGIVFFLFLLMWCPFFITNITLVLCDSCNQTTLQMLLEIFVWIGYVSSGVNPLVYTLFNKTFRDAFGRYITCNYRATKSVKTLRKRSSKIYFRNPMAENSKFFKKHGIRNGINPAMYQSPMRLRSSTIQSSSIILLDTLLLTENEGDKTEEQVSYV
# T4 sequence (P28223 whole entry): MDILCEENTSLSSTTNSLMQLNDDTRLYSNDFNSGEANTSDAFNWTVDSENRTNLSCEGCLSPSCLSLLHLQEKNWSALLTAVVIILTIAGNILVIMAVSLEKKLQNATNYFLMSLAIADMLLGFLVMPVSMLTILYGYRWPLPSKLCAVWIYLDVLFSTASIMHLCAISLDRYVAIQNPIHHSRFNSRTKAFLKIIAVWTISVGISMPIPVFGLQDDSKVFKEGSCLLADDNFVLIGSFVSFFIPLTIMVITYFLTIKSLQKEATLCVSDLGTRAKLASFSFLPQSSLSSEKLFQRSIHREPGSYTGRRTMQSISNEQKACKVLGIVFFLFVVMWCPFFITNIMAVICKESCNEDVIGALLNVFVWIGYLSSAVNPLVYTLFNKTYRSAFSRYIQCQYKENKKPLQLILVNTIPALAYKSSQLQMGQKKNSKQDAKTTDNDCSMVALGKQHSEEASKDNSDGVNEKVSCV
# T2 sequence (P34969 whole entry): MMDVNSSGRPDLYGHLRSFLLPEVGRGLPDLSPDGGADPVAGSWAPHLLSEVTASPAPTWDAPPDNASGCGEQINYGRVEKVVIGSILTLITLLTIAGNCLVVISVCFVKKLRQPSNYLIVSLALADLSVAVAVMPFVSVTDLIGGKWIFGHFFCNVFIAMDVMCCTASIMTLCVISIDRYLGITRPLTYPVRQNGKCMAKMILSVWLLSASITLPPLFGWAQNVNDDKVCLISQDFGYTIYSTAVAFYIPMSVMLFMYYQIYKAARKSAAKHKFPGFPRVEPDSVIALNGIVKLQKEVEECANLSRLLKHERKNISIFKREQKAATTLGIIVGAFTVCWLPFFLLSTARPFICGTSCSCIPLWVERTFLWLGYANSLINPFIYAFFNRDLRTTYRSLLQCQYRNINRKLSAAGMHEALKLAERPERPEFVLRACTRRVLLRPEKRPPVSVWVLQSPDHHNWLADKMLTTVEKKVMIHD
# T1 sequence (P14842 whole entry): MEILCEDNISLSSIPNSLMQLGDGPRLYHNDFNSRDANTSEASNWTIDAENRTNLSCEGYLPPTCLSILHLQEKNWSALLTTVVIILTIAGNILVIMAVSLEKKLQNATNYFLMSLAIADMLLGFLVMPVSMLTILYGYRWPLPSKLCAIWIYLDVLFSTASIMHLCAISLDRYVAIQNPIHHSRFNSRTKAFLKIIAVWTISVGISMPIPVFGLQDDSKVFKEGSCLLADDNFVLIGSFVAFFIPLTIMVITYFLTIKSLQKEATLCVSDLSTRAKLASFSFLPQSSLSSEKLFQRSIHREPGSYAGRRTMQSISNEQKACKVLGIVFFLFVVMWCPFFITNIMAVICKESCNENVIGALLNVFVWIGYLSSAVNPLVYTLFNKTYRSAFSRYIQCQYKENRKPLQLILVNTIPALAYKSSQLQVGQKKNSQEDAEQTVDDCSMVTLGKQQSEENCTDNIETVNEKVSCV
# T9 sequence (P28221 whole entry): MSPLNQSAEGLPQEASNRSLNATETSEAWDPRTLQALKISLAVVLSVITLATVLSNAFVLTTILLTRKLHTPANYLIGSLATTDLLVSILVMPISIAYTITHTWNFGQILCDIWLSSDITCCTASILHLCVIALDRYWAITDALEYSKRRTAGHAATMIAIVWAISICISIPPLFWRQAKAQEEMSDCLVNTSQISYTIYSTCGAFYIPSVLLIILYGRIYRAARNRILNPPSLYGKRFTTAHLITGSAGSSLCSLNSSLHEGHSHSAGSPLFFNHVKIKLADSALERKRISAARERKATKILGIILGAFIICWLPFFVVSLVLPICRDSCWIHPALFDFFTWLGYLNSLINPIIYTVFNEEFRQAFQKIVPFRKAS
# T3 sequence (P50406 whole entry): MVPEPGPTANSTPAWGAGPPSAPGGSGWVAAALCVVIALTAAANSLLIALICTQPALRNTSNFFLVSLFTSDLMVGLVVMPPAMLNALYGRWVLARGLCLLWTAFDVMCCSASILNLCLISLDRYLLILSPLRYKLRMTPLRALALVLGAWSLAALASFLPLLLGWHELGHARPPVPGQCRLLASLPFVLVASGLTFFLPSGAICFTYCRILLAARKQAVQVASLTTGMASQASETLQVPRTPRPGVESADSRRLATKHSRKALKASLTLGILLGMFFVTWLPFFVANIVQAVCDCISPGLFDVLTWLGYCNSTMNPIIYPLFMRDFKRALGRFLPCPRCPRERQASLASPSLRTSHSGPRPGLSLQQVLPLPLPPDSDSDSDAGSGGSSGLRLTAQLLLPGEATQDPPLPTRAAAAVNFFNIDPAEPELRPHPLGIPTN
# Chain of 5-hydroxytryptamine receptor 5A (P47898 whole entry): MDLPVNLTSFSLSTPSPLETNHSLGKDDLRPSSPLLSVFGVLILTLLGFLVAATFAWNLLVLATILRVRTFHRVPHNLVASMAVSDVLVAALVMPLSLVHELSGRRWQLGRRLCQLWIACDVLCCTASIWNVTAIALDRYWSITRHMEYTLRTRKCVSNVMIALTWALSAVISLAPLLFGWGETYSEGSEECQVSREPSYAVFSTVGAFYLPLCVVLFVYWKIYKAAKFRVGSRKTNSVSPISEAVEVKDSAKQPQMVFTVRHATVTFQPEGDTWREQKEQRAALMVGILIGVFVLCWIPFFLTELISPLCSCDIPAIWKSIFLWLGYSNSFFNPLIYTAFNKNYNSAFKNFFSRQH
# T8 sequence (P30939 whole entry): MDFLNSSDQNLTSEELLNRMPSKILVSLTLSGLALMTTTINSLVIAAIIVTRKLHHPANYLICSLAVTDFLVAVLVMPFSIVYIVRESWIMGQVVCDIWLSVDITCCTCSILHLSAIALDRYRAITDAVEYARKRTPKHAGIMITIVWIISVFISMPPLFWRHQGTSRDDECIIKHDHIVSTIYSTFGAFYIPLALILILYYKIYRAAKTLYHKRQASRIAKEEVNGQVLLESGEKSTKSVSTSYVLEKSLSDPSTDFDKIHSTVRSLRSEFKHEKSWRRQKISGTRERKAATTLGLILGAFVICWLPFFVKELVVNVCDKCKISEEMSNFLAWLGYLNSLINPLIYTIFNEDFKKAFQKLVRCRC
# Chain of D(2) dopamine receptor (P61169 whole entry): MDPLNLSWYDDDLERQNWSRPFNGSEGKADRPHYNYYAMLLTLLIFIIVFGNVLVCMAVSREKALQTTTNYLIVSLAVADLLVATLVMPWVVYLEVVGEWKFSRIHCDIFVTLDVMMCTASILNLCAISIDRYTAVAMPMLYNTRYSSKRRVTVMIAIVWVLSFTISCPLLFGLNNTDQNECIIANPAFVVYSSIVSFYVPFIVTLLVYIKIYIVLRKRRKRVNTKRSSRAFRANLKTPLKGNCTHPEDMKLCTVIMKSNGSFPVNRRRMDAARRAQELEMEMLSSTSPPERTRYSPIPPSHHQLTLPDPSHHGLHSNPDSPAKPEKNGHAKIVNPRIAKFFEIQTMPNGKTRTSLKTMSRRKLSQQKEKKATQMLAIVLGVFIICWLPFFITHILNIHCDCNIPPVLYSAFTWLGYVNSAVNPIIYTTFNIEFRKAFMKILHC
# Chain of Sigma intracellular receptor 2 (Q5BJF2 whole entry): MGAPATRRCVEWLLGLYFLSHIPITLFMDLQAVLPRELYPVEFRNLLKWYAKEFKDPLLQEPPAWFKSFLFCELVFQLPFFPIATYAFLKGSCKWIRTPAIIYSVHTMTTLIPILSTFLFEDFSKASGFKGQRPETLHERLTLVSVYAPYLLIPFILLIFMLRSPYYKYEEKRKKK
# Chain of Sigma non-opioid intracellular receptor 1 (Q99720 whole entry): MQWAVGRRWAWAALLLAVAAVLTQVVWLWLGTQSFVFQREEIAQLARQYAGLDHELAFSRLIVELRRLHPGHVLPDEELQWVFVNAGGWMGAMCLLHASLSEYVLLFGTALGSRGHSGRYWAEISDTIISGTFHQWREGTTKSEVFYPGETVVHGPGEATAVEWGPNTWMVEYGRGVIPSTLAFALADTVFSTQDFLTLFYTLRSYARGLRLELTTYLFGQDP
# Chain of 5-hydroxytryptamine receptor 1B (P28222 whole entry): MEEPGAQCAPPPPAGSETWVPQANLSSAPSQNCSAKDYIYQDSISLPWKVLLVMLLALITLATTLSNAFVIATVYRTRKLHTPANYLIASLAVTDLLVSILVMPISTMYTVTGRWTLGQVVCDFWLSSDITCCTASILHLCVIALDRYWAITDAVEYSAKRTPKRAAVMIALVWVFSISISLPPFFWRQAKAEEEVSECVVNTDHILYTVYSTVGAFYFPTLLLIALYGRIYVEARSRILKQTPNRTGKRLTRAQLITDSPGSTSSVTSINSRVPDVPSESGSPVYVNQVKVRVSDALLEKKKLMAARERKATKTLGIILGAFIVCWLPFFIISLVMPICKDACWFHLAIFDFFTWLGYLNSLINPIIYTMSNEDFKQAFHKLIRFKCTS
compound,measurement,setting,value
CC1(NC(=O)c2ccc(N)cc2)CCN(CCCOc2ccc(F)cc2)CC1,Ki,[1],0.2 nM
same,Kd,[2],0.11 nM
COc1cccc(S(=O)(=O)N2CCC[C@@H]2CCN2CCC(C)CC2)c1,Ki,[3],18 nM
same,Ki,[4],9.2 nM
same,Ki,[5],1.6 nM
[11CH3]N1CCN(c2cccc3cc(S(=O)(=O)c4cccc(F)c4)cnc23)CC1,Ki,[6],0.79 nM
same,Drug uptake,[7],3.5 %Idose/L
same,Drug uptake,[8],10.5 %Idose/L
same,Drug uptake,[9],11.5 %Idose/L
same,Ki,[10],0.16 nM
CN(C)CCOc1cccc2c1ccn2S(=O)(=O)c1ccc([18F])cc1,Ki,[11],4 nM
COc1cccc([C@H](O)C2CCN(CCc3ccc([18F])cc3)CC2)c1OC,Drug uptake,[12],> 94%
COc1ccc(-c2c([N+](=O)[O-])ccn2C)cc1,Ki,[13],16.8 nM
COc1ccc(C(=O)N(Cc2ccc(C)cc2)C2CCN(C)CC2)cc1,Ki,[14],2.5 nM
same,Ki,[15],2.1 nM
COc1cccc(CCc2ccccc2OCC[C@@H]2C[C@@H](O)CN2C)c1,Ki,[16],0.79 nM
Cc1nc2n(c(=O)c1CCN1CCC(C(=O)c3ccc([18F])cc3)CC1)CCS2,Ratio,[17],3
same,Ratio,[18],3.5
same,Ratio,[19],2.53
same,Ratio,[20],2.38
[11CH3]N1CCc2nc3ccnn3c(N3CCC3)c2CC1,Ki,[21],75 nM
same,Ki,[22],> 1000 nM
same,Ki,[23],> 1000 nM
same,Ki,[24],161 nM
CN(C)[C@@H]1CCc2[nH]c3ccc(NC(=O)c4ccc(F)cc4)cc3c2C1,Ki,[25],6 nM
same,Ki,[26],> 500 nM
same,Ki,[27],> 500 nM
same,Ki,[28],> 500 nM
same,Ki,[29],> 500 nM
same,Ki,[30],> 500 nM
same,Ki,[31],> 500 nM
CC(c1cnc2c(N3CCN(C)CC3)cccc2c1)S(=O)(=O)c1ccccc1[18F] (stereo unspecified),SUVmax,[32],2.5
same,SUVmax,[33],4.5
CC1CCN(CC[C@H]2CCCN2S(=O)(=O)c2cccc(OCC[18F])c2)CC1,Ki,[34],0.75 nM
COc1c(OCC[18F])cccc1C(O)C1CCN(CCc2ccc(F)cc2)CC1 (racemic),Drug uptake,[35],1.5
same,Ratio,[36],3.2
c1ccc(CN2CCN(c3nc4ccsc4n4cccc34)CC2)cc1,Ki,[37],1 nM
COc1cc(CCNCc2ccccc2OC)c(OC)cc1I,Ki,[38],2.2 nM
same,Ki,[39],2.3 nM
same,Ki,[40],7 nM
COc1c(OCC[18F])cccc1[C@H](O)C1CCN(CCc2ccc(F)cc2)CC1,Drug uptake,[41],1.45
same,Ratio,[42],2.7
[11CH3]N1CCC(COC(=O)c2cc(Cl)c(N)c3c2OCCO3)CC1,Ki,[43],0.3 nM
same,SUVmax,[44],28 kBq/cm3
CNC(=O)c1ccc2c(c1)CCO[C@H]2CCN1CCN(c2ccc(C(N)=O)cc2)CC1,Ki,[45],6 nM
same,Ki,[30],> 18000 nM
CN1CCC(C(=O)c2cccc(NC(=O)c3c(F)cc(F)cc3F)n2)CC1,Ki,[46],2.21 nM
same,Ki,[26],> 592 nM
same,Ki,[27],> 595 nM
same,Ki,[28],> 594 nM
same,Ki,[29],> 590 nM
same,Ki,[30],> 593 nM
same,Ki,[31],> 590 nM
same,Ki,[47],> 591 nM
COc1cc(CCNCc2ccccc2O[11CH3])c(OC)cc1Br,Ki,[48],1.7 nM
same,SUV,[49],0.8
same,Drug uptake,[50],0.62
same,Ki,[51],0.5 nM
Cc1ccc2c(c1)c(-c1ccc(F)cc1)c(C)n2C1CCN(C)CC1,Ki,D(2) dopamine receptor,2600 nM
same,Ki,[52],5.3 nM
same,Ki,[53],2700 nM
